Values of other authors as cited in patent US20070111204A1, “Methods for detecting nucleic acid variations” (priority 2003, published 2007).

System: CGRP
Settings: marmoset, electrical stimulation of the trigeminal ganglion (Doods et al. 2000)

**Q.** Which “effect on increase of facial blood flow” value does the source give for `NCCCC[C@H](NC(=O)[C@@H](Cc1cc(Br)c(O)c(Br)c1)NC(=O)N1CCC(N2Cc3ccccc3NC2=O)CC1)C(=O)N1CCN(c2ccncc2)CC1` [BIBN4096BS] here?
**A.** blocked
